Source: patent US6943187B2, “Pyrrolidine derivative hair growth compositions and uses” (GPI Nil Holdings, Inc., priority 1997, dated 2005)
“Also recorded” adds a separate entry of the source.

Columns and labels:
FKBP12 = FKBP12 (Homo sapiens, UniProt P62942); test: Inhibition of peptidyl-prolyl isomerase (rotamase) activity, chymotrypsin-coupled assay (Ki test procedure); type: biochemical; conditions: apparent Ki, rotamase inhibition of FKBP, substrate N-succinyl-Ala-Ala-Pro-Phe-p-nitroanilide
Protocol: The inhibition of the prolyl peptidyl cis-trans isomerase activity of FKBP may be measured as an indicator of this affinity.
The cis-trans isomerization of an alanine-proline bond in a model substrate, N-succinyl-Ala-Ala-Pro-Phe-p-nitroanilide, is monitored spectrophotometrically in a chymotrypsin-coupled assay, which releases para-nitroanilide from the trans form of the substrate. The inhibition of this reaction caused by the addition of different concentrations of inhibitor is determined, and the data is analyzed as a change in first-order rate constant as a function of inhibitor concentration to yield the apparent K1 values.
In a plastic cuvette are added 950 ml of ice cold assay buffer (25 mM HEPES, pH 7.8, 100 mM NaCl), 10 ml of FKBP (2.5 mM in 10 mM Tris-Cl pH 7.5, 100 mM NaCl, 1 mM dithiothreitol), 25 ml of chymotrypsin (50 mg/ml in 1 mM HCl) and 10 ml of test compound at various concentrations in dimethyl sulfoxide.

C57 black 6 mice = test: In vivo hair generation test, Experiment A (topical, shaved area); conditions: 30 μM topical in 20% propylene glycol, 3 applications over 5 days, after six weeks; listed as GPI 1046
Text: Care was taken not to nick or cause abrasion to the underlaying dermal layers. The animals were in anagen growth phase, as indicated by the pinkish color of the skin. […] Hair growth was quantitated by the percent of shaved area covered by new hair growth during this time period.

hair growth = conditions: topical, but not oral, application; cited from earlier work

Chain of FKBP12 (P62942 whole entry, species assumed): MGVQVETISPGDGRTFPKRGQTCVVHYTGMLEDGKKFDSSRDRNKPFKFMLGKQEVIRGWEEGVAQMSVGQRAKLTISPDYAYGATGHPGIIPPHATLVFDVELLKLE

| Ki (FKBP12) | Compound | hair regrowth in the shaved area (C57 black 6 mice) | stimulation of hair growth (hair growth) |
| --- | --- | --- | --- |
| 200 nM | CCC(C)(C)C(=O)C(=O)N1CCC[C@H]1C(=O)OCCCc1cc(OC)c(OC)c(OC)c1 [Compound 3, 3-(3,4,5-trimethoxyphenyl)-1-propyl (2S)-1-(3,3-dimethyl-1,2-dioxopentyl)-2-pyrrolidine-carboxylate] |  |  |
| 170 nM | CCC(C)(C)C(=O)C(=O)N1CCC[C@H]1C(=O)OCCCc1ccc2c(c1)OCO2 [Compound 5, 3-(4,5-methylenedioxyphenyl)-1-propyl (2S)-1-(3,3-dimethyl-1,2-dioxopentyl)-2-pyrrolidine-carboxylate] |  |  |
| 200 nM | CCC(C)(C)C(=O)C(=O)N1CCC[C@H]1C(=O)OCCCC1CCCCC1 [Compound 7, 3-cyclohexyl-1-propyl (2S)-1-(3,3-dimethyl-1,2-dioxopentyl)-2-pyrrolidinecarboxylate] |  |  |
| 250 nM | CCC(C)(C)C(=O)C(=O)N1CCC[C@H]1C(=O)OCCCc1cc(OC)ccc1OC [Compound 14, 3-(2,5-dimethoxyphenyl)-1-propyl (2S)-1-(3,3-dimethyl-1,2-dioxopentyl)-2-pyrrolidine-carboxylate] |  |  |
| 120 nM | CCC(C)(C)C(=O)C(=O)N1CCC[C@H]1C(=O)OCCc1cc(OC)c(OC)c(OC)c1 [Compound 16, 2-(3,4,5-trimethoxyphenyl)-1-ethyl (2S)-1-(3,3-dimethyl-1,2-dioxopentyl)-2-pyrrolidine-carboxylate] |  |  |
| 195 nM | CCC(C)(C)C(=O)C(=O)N1CCC[C@H]1C(=O)OCCCc1ccccn1 [Compound 18, 3-(2-Pyridyl)-1-propyl (2S)-1-(3,3-dimethyl-1,2-dioxopentyl)-2-pyrrolidinecarboxylate] |  |  |
| 23 nM | CCC(C)(C)C(=O)C(=O)N1CCC[C@H]1C(=O)OCCCc1ccncc1 [Compound 19, 3-(4-Pyridyl)-1-propyl (2S)-1-(3,3-dimethyl-1,2-dioxopentyl)-2-pyrrolidinecarboxylate] |  |  |
| 95 nM | CC(C)(C)C(=O)C(=O)N1CCC[C@H]1C(=O)OCCCc1ccccc1 [Compound 21, 3-phenyl-1-propyl (2S)-1-(2-tert-butyl-1,2-dioxoethyl)-2-pyrrolidinecarboxylate] |  |  |
| 1020 nM | O=C(CCC1CCCCC1)C(=O)N1CCC[C@H]1C(=O)OCCCc1ccccc1 [Compound 22, 3-phenyl-1-propyl (2S)-1-(2-cyclohexyl-ethyl-1,2-dioxoethyl)-2-pyrrolidinecarboxylate] |  |  |
| 1400 nM | O=C(CCC1CCCCC1)C(=O)N1CCC[C@H]1C(=O)OCCCc1cccnc1 [Compound 23, 3-(3-pyridyl)-1-propyl (2S)-1-(2-cyclohexylethyl-1,2-dioxoethyl)-2-pyrrolidinecarboxylate] |  |  |
| 3 nM | CC(C)(C)C(=O)C(=O)N1CCC[C@H]1C(=O)OCCCc1cccnc1 [Compound 24, 3-(3-pyridyl)-1-propyl (2S)-1-(2-tert-butyl-1,2-dioxoethyl)-2-pyrrolidinecarboxylate] |  |  |
| 5 nM | CCC(C)(C)C(=O)C(=O)N1CCC[C@H]1C(=O)OCCC(c1ccccc1)c1ccccc1 [Compound 25, 3,3-diphenyl-1-propyl (2S)-1-(3,3-dimethyl-1,2-dioxopentyl)-2-pyrrolidinecarboxylate] |  |  |
| 5 nM | CC(C)(C)C(=O)C(=O)N1CCC[C@H]1C(=O)OCCC(c1ccccc1)c1ccccc1 [Compound 28, 3,3-Diphenyl-1-propyl (2S)-1-(3,3-dimethyl-1,2-dioxobutyl)-2-pyrrolidinecarboxylate] |  |  |
|  | C=CC[C@@H]1/C=C(\C)C[C@H](C)C[C@H](OC)[C@H]2O[C@@](O)(C(=O)C(=O)N3CCCC[C@H]3C(=O)O[C@H](/C(C)=C/[C@@H]3CC[C@@H](O)[C@H](OC)C3)[C@H](C)[C@@H](O)CC1=O)[C@H](C)C[C@@H]2OC [FK506] |  | stimulates hair growth in a dose-dependent manner |

| Compound | Ki (FKBP12) | hair regrowth in the shaved area (C57 black 6 mice) | stimulation of hair growth (hair growth) |
| --- | --- | --- | --- |
| CCC(C)(C)C(=O)C(=O)N1CCC[C@H]1C(=O)OCCCc1cccnc1 [Compound 17, 3-(3-Pyridyl)-1-propyl (2S)-1-(3,3-dimethyl-1,2-dioxopentyl)-2-pyrrolidinecarboxylate] | 5 nM | essentially, complete hair regrowth; also recorded: essentially complete hair regrowth |  |
